Measurements published in patent US20250269041A1, “Mutual Prodrugs of Cromoglicic Acid” (Samdolite Pharmaceuticals, Inc., priority 2022, published 2025).
Where two headings read alike, the source gives them in different places.

Key:
[1] = Protocol: Shed snakeskin, which is a model membrane to human skin used for preliminary permeability studies due to its similarity in composition to the human stratum corneum, was used as a skin model. The solution in the receiver compartment was maintained at 37° C. and stirred at 500 rpm with a magnetic stirrer. Before each experiment, the shed snakeskin was hydrated in 7.4 pH Dulbecco's Phosphate Buffered Saline (DPBS) containing 0.1% sodium azide solution for 24 hours at room temperature.
To emulate the esterase activity of human skin, a “sandwich” of shed snakeskin from a black rat snake (Pantherophis obsoletus) and a dialysis membrane with a molecular weight cut-off of 3.5 kDa (Cole-Palmer, Spectra Por S/P 3 EW-02900-04) was designed. Recombinant Human Carboxylesterase 2/CES2 (R&D Systems, #5657-CE) at a concentration 50 μg/mL was added between the snakeskin and the dialysis membrane (FIG. 1). A diffusion area of 0.64 cm^2 and a volume of 2 mL in the donor and receiver compartments were used. The temperature in Franz cell was controlled via thermocouple probe IT-23 (World Precision Instruments, Sarasota, FL, USA) placed in receiver compartment below the membrane “sandwich” through the sampling arm. All tested compounds were solubilized in 50% polyethylene glycol 400 (PEG 400)/DPBS at 25 mg/mL. PEG 400 was used to increase the water solubility of diethyl cromoglycate, cetirizine ethyl ester and cetirizine cromoglycate.
The system was allowed to equilibrate for one hour before each experiment. […] The receiver compartment was filled with 2 mL of 50% w/w polyethylene glycol 400 in DPBS to maintain a sink condition in the receiver solution. A sample was manually taken at 1-hour intervals from the receptor compartment and replaced with fresh DPBS at each time point. The concentration of drugs and their cumulative amount was plotted against time. Each experiment with each compound was performed in triplicate. The amount of the drug in the sample was estimated spectrophotometrically (NanoDrop™ UV-Visible spectrophotometer, Thermo Fisher Scientific Inc.). Light absorption was plotted as a function of concentration and fitted with a linear regression equation.

[2] = normal pH of 7.4; cited from earlier work
[3] = black rat snake (Pantherophis obsoletus), 0 h, 25 mg/mL
[4] = black rat snake (Pantherophis obsoletus), 25 mg/mL
[5] = black rat snake (Pantherophis obsoletus), 1 h, 25 mg/mL
[6] = black rat snake (Pantherophis obsoletus), 2 h, 25 mg/mL
[7] = black rat snake (Pantherophis obsoletus), 3 h, 25 mg/mL
[8] = black rat snake (Pantherophis obsoletus), 4 h, 25 mg/mL
[9] = black rat snake (Pantherophis obsoletus), 5 h, 25 mg/mL
[10] = black rat snake (Pantherophis obsoletus), 6 h, 25 mg/mL
[11] = black rat snake (Pantherophis obsoletus), 7 h, 25 mg/mL
[12] = black rat snake (Pantherophis obsoletus), 8 h, 25 mg/mL
[13] = black rat snake (Pantherophis obsoletus), 9 h, 25 mg/mL
[14] = black rat snake (Pantherophis obsoletus), 10 h, 25 mg/mL
[15] = black rat snake (Pantherophis obsoletus), 11 h, 25 mg/mL
[16] = black rat snake (Pantherophis obsoletus), 12 h, 25 mg/mL

| SMILES | Cumulative concentration per unit area [1, 3] [μg/cm^2] | mean lag times across shed snakeskin [1, 4] [h] | Cumulative concentration per unit area [1, 5] [μg/cm^2] | Cumulative concentration per unit area [1, 6] [μg/cm^2] | Cumulative concentration per unit area [1, 7] [μg/cm^2] | Cumulative concentration per unit area [1, 8] [μg/cm^2] | Cumulative concentration per unit area [1, 9] [μg/cm^2] | Cumulative concentration per unit area [1, 10] [μg/cm^2] | Cumulative concentration per unit area [1, 11] [μg/cm^2] | Cumulative concentration per unit area [1, 12] [μg/cm^2] | Cumulative concentration per unit area [1, 13] [μg/cm^2] | Cumulative concentration per unit area [1, 14] [μg/cm^2] | Cumulative concentration per unit area [1, 15] [μg/cm^2] | Cumulative concentration per unit area [1, 16] [μg/cm^2] | transport compared with the permeation of lipophilic prodrugs diethyl cromoglycate and cetirizine ethyl ester [1] | permeation across the shed snakeskin, times lower than the permeation of the lipophilic prodrug [1, 4] | logP [2] | mean lag times across shed snakeskin [1] [h] |
| --- | --- | --- | --- | --- | --- | --- | --- | --- | --- | --- | --- | --- | --- | --- | --- | --- | --- | --- |
| CCOC(=O)c1cc(=O)c2c(OCC(O)COc3cccc4oc(C(=O)OCC)cc(=O)c34)cccc2o1 [Example 50, Diethyl Cromoglicate] | 0 | 0.15 to 0.25 | 23 | 55 | 95 | 145 | 195 | 235 | 256 | 320 | 390 | 435 | 470 | 495 |  |  |  |  |
| O=C(COCCN1CCN(C(c2ccccc2)c2ccc(Cl)cc2)CC1)OC(COc1cccc2oc(C(=O)O)cc(=O)c12)COc1cccc2oc(C(=O)O)cc(=O)c12 (stereo not drawn) [Example 3] | 0 | 0.55 to 1.15 | 2 | 12 | 28 | 53 | 89 | 112 | 142 | 176 | 215 | 256 | 295 | 350 | lower |  |  |  |
| O=C(O)c1cc(=O)c2c(OCC(O)COc3cccc4oc(C(=O)O)cc(=O)c34)cccc2o1 [Cromoglicate Sodium, Cromoglicate sodium, reference compound] | 0 |  | 5 | 15 | 25 | 30 | 45 | 50 | 73 | 80 | 93 | 98 | 112 | 119 |  | 3.5-5 times | −4.8 |  |
| CCOC(=O)COCCN1CCN(C(c2ccccc2)c2ccc(Cl)cc2)CC1 (stereo not drawn) [Cetirizine Ethyl Ester, reference compound] |  |  |  |  |  |  |  |  |  |  |  |  |  |  |  |  |  | 0.15 to 0.25 |
